# According to patent publication US20260042731A1, “(2,4-DICHLOROPHENOXY)ACETIC ACID ANALOGS” (CORTEVA AGRISCIENCE LLC, priority 2022, published 2026):
# Like-named read-outs stand apart in the source and are kept apart here.
# Tests used:
# [1] = test system: weeds (ABUTH, AMATA, AMBEL, CHEAL, ERICA); test: Postemergence herbicide evaluation, overall average % weed control across ABUTH, AMATA, AMBEL, CHEAL, ERICA; format: in vivo; details: post-emergence, average over the five weeds, read-out: Overall Ave % Weed Control; for pest or weed control at 280 g/ha: 280 g ae/ha; for pest or weed control at 560 g/ha: 560 g ae/ha
# [2] = test system: Ambrosia artemisiifolia (AMBEL), common ragweed; test: Postemergence herbicide evaluation, growth of Ambrosia artemisiifolia (AMBEL); format: in vivo; details: Ambrosia artemisiifolia, post-emergence, read-out: AVE. AMBEL
# [3] = test system: Chenopodium album (CHEAL), common lambsquarters; test: Postemergence herbicide evaluation, growth of Chenopodium album (CHEAL); format: in vivo; details: Chenopodium album, post-emergence, read-out: Ave. CHEAL
# [4] = Volatility of compounds measured by thermogravimetric analysis (TGA); format: physicochemical
# [5] = test system: Amaranthus rudis (AMATA), tall water hemp; test: Postemergence herbicide evaluation, growth of Amaranthus rudis (AMATA); format: in vivo; details: Amaranthus tuberculatus, post-emergence, read-out: Ave. AMATA
# [6] = test system: glyphosate resistant Conyza canadensis (L.) (ERICA), horseweed; test: Postemergence herbicide evaluation, growth of Conyza canadensis (ERICA); format: in vivo; details: Erigeron canadensis, post-emergence, read-out: Ave. ERICA
# [7] = test system: Abutilon theophrasti (ABUTH), velvetleaf; test: Postemergence herbicide evaluation, growth of Abutilon theophrasti (ABUTH); format: in vivo; details: Abutilon theophrasti, post-emergence, read-out: AVE. ABUTH
smiles,measurement,setting,value
"O=C(COc1ccc(Cl)cc1Cl)Nc1ccc(Cl)cc1 [Compound D6, N-(4-Chlorophenyl)-2-(2,4-dichlorophenoxy)acetamide]",pest or weed control at 280 g/ha,"[1]; 168 h, 7 DAA",60%
same,pest or weed control at 560 g/ha,"[1]; 168 h, 7 DAA",63%
same,pest or weed control at 280 g/ha,"[1]; 336 h, 14 DAA",68%
same,pest or weed control at 560 g/ha,"[1]; 336 h, 14 DAA",70%
same,pest or weed control at 280 g/ha,"[1]; 504 h, 21 DAA",71%
same,pest or weed control at 560 g/ha,"[1]; 504 h, 21 DAA",65%
same,pest or weed control at 280 g/ha,[2]; 168 h,58%
same,pest or weed control at 560 g/ha,[2]; 168 h,58%
same,pest or weed control at 280 g/ha,[2]; 336 h,78%
same,pest or weed control at 560 g/ha,[2]; 336 h,68%
same,pest or weed control at 280 g/ha,[2]; 504 h,88%
same,pest or weed control at 560 g/ha,[2]; 504 h,63%
same,pest or weed control at 280 g/ha,[3]; 168 h,60%
same,pest or weed control at 560 g/ha,[3]; 168 h,73%
same,pest or weed control at 280 g/ha,[3]; 336 h,65%
same,pest or weed control at 560 g/ha,[3]; 336 h,75%
same,pest or weed control at 280 g/ha,[3]; 504 h,68%
same,pest or weed control at 560 g/ha,[3]; 504 h,68%
same,"TGA Data (rate of weight loss, volatility)",[4],0.02 µg/min
same,pest or weed control at 280 g/ha,[5]; 168 h,68%
same,pest or weed control at 560 g/ha,[5]; 168 h,63%
same,pest or weed control at 280 g/ha,[5]; 336 h,84%
same,pest or weed control at 560 g/ha,[5]; 336 h,70%
same,pest or weed control at 280 g/ha,[5]; 504 h,80%
same,pest or weed control at 560 g/ha,[5]; 504 h,65%
same,pest or weed control at 280 g/ha,[6]; 168 h,65%
same,pest or weed control at 560 g/ha,[6]; 168 h,60%
same,pest or weed control at 280 g/ha,[6]; 336 h,83%
same,pest or weed control at 560 g/ha,[6]; 336 h,78%
same,pest or weed control at 280 g/ha,[6]; 504 h,83%
same,pest or weed control at 560 g/ha,[6]; 504 h,75%
same,pest or weed control at 280 g/ha,[7]; 168 h,50%
same,pest or weed control at 560 g/ha,[7]; 168 h,60%
same,pest or weed control at 280 g/ha,[7]; 336 h,33%
same,pest or weed control at 560 g/ha,[7]; 336 h,58%
same,pest or weed control at 280 g/ha,[7]; 504 h,35%
same,pest or weed control at 560 g/ha,[7]; 504 h,53%
